Laboratory results from patent US8552161B2, “Saponin compounds, methods of preparation thereof, use thereof and pharmaceutical compositions” (Uniwersytet W Bialymstoku, priority 2009, dated 2013).

Experiments:
[1] = tested on: T-lymphoblastic leukemia cell line CEM; assay: Calcein AM cytotoxicity assay, CEM; type: cell-based; settings: 72 h; for IC50: Calcein AM assay, means ± SD, three independent experiments in triplicate; for dose-dependent antiproliferative activity, number of viable cells (FIG. 1): CEM, increasing concentrations, Calcein AM
Method: (§1) Stock solutions (10 mmol/l) of the tested compounds were prepared by dissolving relevant quantity of the substance in DMSO. […] Calcein AM was obtained from Molecular Probes (Invitrogen Corporation, CA, USA).
(§2) All cell lines were cultured in DMEM medium (Sigma, Mo., USA). Medium was supplemented with 10% heat-inactivated fetal bovine serum, 2 mmol/l L-glutamine and 1% penicillin-streptomycin. The cell lines were maintained under standard cell culture conditions at 37° C. and 5% CO2 in a humid environment. Cells were subcultured twice or three times a week using the standard trypsinization procedure.
(§3) All cell lines were cultured in DMEM medium (Sigma, Mo., USA) supplemented with 10% fetal calf serum, 2 mM glutamine, 100 U/ml penicillin and 100 μg/ml streptomycin, at 37° C. in a fully humidified atmosphere containing 5% CO2. Suspensions of these lines (ca. 1.0×10^5 cells/ml) were placed in 96-well microtitre plates and after 3 h of stabilization the tested compounds were added in serially diluted concentrations. Saponins were dissolved in dimethylsulfoxide (DMSO) before addition to cultures. Control cultures were treated with DMSO alone. The final concentration of DMSO in the reaction mixtures never exceeded 0.6%. Four-fold dilutions of the intended test concentration were added at time zero in 20 μl aliquots to the microtitre plate wells. Usually, each test compound was evaluated at six 4-fold dilutions and in routine testing; the highest well concentration was 50 μM, although this varied in a few cases, depending on the test compound. After 72 h of culture, the cells were incubated with Calcein AM solution (Molecular Probes) for 1 h. The fluorescence of viable cells was quantified using a Fluoroscan Ascent instrument (Microsystems).

[2] = tested on: lung carcinoma cell line A549; assay: Calcein AM cytotoxicity assay, A549; type: cell-based, human; settings: 72 h, means ± SD, three independent experiments in triplicate, read-out: IC50, A 549
Method: as §1, §2, §3

[3] = tested on: osteosarcoma cell line HOS; assay: Calcein AM cytotoxicity assay, HOS; type: cell-based, human; settings: 72 h, means ± SD, three independent experiments in triplicate
Method: (§4) Stock solutions (10 mmol/l) of the tested compounds were prepared by dissolving relevant quantity of the substance in DMSO. Dulbecco's modified Eagle's medium (DMEM, RPMI 1640, F-12 medium), fetal bovine serum (FBS), L-glutamine, penicillin, streptomycin were purchased from Sigma (MO, USA). Calcein AM was obtained from Molecular Probes (Invitrogen Corporation, CA, USA).
(§5) The screening cell lines (T-lymphoblastic leukaemia cell line CEM, breast carcinoma cell line MCF-7, cervical carcinoma cell line HeLa, human glioblastoma cell line T98, human malignant melanoma G-361, human osteogenic sarcoma cell line HOS, carcinomic human alveolar basal epithelial cells A549, human colon carcinoma cells HCT 116 and human fibroblasts BJ) were obtained from the American Type Culture Collection (Manassas, Va., USA). All cell lines were cultured in DMEM medium (Sigma, Mo., USA). Medium was supplemented with 10% heat-inactivated fetal bovine serum, 2 mmol/l L-glutamine and 1% penicillin-streptomycin. The cell lines were maintained under standard cell culture conditions at 37° C. and 5% CO2 in a humid environment. Cells were subcultured twice or three times a week using the standard trypsinization procedure.
(§6) Cytotoxic activities of the novel compounds, obtained according to this invention, were tested in vitro against following cancer cell lines: T-lymphoblastic leukemia cell line CEM; breast carcinoma cell line MCF7, lung carcinoma cell line A549, cervical carcinoma cell line HeLa, malignant melanoma cell line G-361, osteosarcoma cell line HOS, human glioblastoma cell line T98, human colon carcinoma cells HCT 116 and normal human fibroblasts BJ. […] Usually, each test compound was evaluated at six 4-fold dilutions and in routine testing; the highest well concentration was 50 μM, although this varied in a few cases, depending on the test compound. […] The fluorescence of viable cells was quantified using a Fluoroscan Ascent instrument (Microsystems). […]

[4] = tested on: human glioblastoma cell line T98; assay: Calcein AM cytotoxicity assay, T98; type: cell-based; settings: 72 h, means ± SD, three independent experiments in triplicate
Method: as §4, §5
as §3, with “Cytotoxic activities of the novel compounds, obtained according to this invention, were tested in vitro against following cancer cell lines: T-lymphoblastic leukemia cell line CEM; breast carcinoma cell line MCF7, lung carcinoma cell line A549, cervical carcinoma cell line HeLa, malignant melanoma cell line G-361, osteosarcoma cell line HOS, human glioblastoma cell line T98, human colon carcinoma cells HCT 116 and normal human fibroblasts BJ. All” for “All”, “(Microsystems). The percentage of surviving cells in each well was calculated from the equation […]=(ODdrug exposed well/mean ODcontrol wells)×100%. The IC50 value, the drug concentration lethal to 50% of the tumour cells, was calculated from the obtained dose-response curves.” for “(Microsystems).”

[5] = tested on: human colon carcinoma cells HCT 116; assay: Calcein AM cytotoxicity assay, HCT 116; type: cell-based; settings: 72 h, means ± SD, three independent experiments in triplicate, read-out: IC50, HCT116
Method: as §4, §5, §6

[6] = tested on: normal human fibroblasts BJ; assay: Calcein AM cytotoxicity assay, normal fibroblasts BJ; type: cell-based; settings: 72 h, means ± SD, three independent experiments in triplicate
Method: as §1, §2, §3

[7] = tested on: cervical carcinoma cell line HeLa; assay: Calcein AM cytotoxicity assay, HeLa; type: cell-based; settings: 72 h, means ± SD, three independent experiments in triplicate
Method: as §1, §2, §3

[8] = tested on: breast carcinoma cell line MCF7; assay: Calcein AM cytotoxicity assay, MCF7; type: cell-based, human; settings: for IC50: Calcein AM assay, 72 h, means ± SD, three independent experiments in triplicate; for dose-dependent antiproliferative activity, number of viable cells (FIG. 1): MCF7, 72 h, increasing concentrations, Calcein AM
Method: as §1, §2, §3

[9] = tested on: malignant melanoma cell line G-361; assay: Calcein AM cytotoxicity assay, G-361; type: cell-based, human; settings: 72 h, means ± SD, three independent experiments in triplicate
Method: as §1, §2, §3

[10] = tested on: leukemia HL-60 cancer cells; settings: cited from earlier work
P388 = settings: mice bearing P388, single administration of 0.01 mg/kg; cited from earlier work
[11] = tested on: human leukemia and pancreatic cancer cells; settings: cited from earlier work

| SMILES | IC50 [1] [nM] | IC50 [2] [nM] | IC50 [3] [nM] | IC50 [4] [nM] | IC50 [5] [nM] | IC50 [6] [nM] | IC50 [7] [nM] | IC50 [8] [nM] | IC50 [9] [nM] | dose-dependent antiproliferative activity, number of viable cells (FIG. 1) [1] | dose-dependent antiproliferative activity, number of viable cells (FIG. 1) [8] | cytotoxicity relative to clinically applied anticancer agents (mitomycin C, adriamycin, cisplatin, camptothecin, taxol) ([10]; HL-60) | cytotoxic activity, HL-60 ([10]; NCI tests) | prolongation of life span (P388) [%] | effect on mitochondria [11] |
| --- | --- | --- | --- | --- | --- | --- | --- | --- | --- | --- | --- | --- | --- | --- | --- |
| CC(C)CCC(=O)[C@@H](C)[C@@]1(O)[C@@H](O)C[C@H]2[C@@H]3CC=C4C[C@@H](O)CC[C@]4(C)[C@H]3CC[C@@]21C [OSW-1 aglycone, reference compound] | > 50000 | > 50000 | > 50000 | > 50000 | > 50000 | > 50000 | > 50000 | > 50000 | > 50000 |  |  |  |  |  |  |
| CCCCCCCCCCCCCCCCCC(=O)OC[C@@H](C)[C@@]1(O)[C@@H](O[C@@H]2OC[C@H](O)[C@H](O[C@@H]3OC[C@@H](O)[C@H](O)[C@H]3OC(=O)c3ccc(OC)cc3)[C@H]2OC(C)=O)C[C@H]2[C@@H]3CC=C4C[C@@H](O)CC[C@]4(C)[C@H]3CC[C@@]21C [Compound 10, (20R)-21-O-Octadecanoyl-20-methylpregn-5-ene-3β,16β,17α,21-tetraol 16-O-{2-O-(4-methoxybenzoyl)-β-D-xylopyranosyl-(1→3)-2′-O-acetyl-α-L-arabinopyranoside}] | 58 ± 1 | 550 ± 180 |  | 210 ± 50 |  | 80 ± 4 | 435 ± 64 | 195 ± 21 | 300 ± 100 | significantly reduce the number of living cells | significantly reduce the number of living cells |  |  |  |  |
| CCCCCCCCCCCCCC(=O)OC[C@@H](C)[C@@]1(O)[C@@H](O[C@@H]2OC[C@H](O)[C@H](O[C@@H]3OC[C@@H](O)[C@H](O)[C@H]3OC(=O)c3ccc(OC)cc3)[C@H]2OC(C)=O)C[C@H]2[C@@H]3CC=C4C[C@@H](O)CC[C@]4(C)[C@H]3CC[C@@]21C [Compound 9, (20R)-21-O-tetradecanoyl-20-methylpregn-5-ene-3β,16β,17α,21-tetraol 16-O-{2-O-(4-methoxybenzoyl)β-D-xylopyranosyl-(1-43)-2′-O-acetyl-α-L-arabinopyranoside}] | 16 ± 5 | 720 ± 70 | 2700 ± 600 | 28 ± 1 | 2800 ± 400 | 83 ± 5 | 67 ± 2 | 48 ± 22 | 30 ± 10 | significantly reduce the number of living cells | significantly reduce the number of living cells |  |  |  |  |
| COc1ccc(C(=O)O[C@H]2[C@H](O[C@@H]3[C@@H](OC(C)=O)[C@H](O[C@H]4C[C@H]5[C@@H]6CC=C7C[C@@H](O)CC[C@]7(C)[C@H]6CC[C@]5(C)[C@@]4(O)[C@H](C)C(=O)CCC(C)C)OC[C@@H]3O)OC[C@@H](O)[C@@H]2O)cc1 [OSW-1, reference compound] | 3 ± 0.03 | 27 ± 3 | 8200 ± 400 | 70 ± 6 | 8400 ± 500 | 0.2 | 3.4 ± 0.3 | 54.4 ± 0.2 | 1000 ± 100 |  |  | 10-100 times | nanomolar concentrations | 59 | damaged the mitochondrial membrane and cristae |
